Like-named read-outs stand apart in the source and are kept apart here.
Tests used:
[1] = target: p110α (Homo sapiens (Human), UniProt P42336, H1047R); assay: p110α degradation, Western blot in HCC1954 and HDQ-P1 cells after 24 hour treatment (Example 905); format: cell-based; conditions: HCC1954 (PI3Kα mutant H1047R) vs. HDQ-P1 (PI3Kα wild-type)
Experimental: Cell lines were grown under standard tissue culture conditions in RPMI media with 10% fetal bovine serum, 100 U/mL penicillin, and 100 μg/mL streptomycin.

[2] = test system: SW48 (E545K) PI3Kα mutant cells, P-PRAS40; assay: Inhibition of P-PRAS40 in SW48 isogenic cells, helical domain mutant E545K (Example 902); conditions: Homo sapiens, SW48, 24 h, read-out: P-PRAS40 SW48 (E545K) EC50
[3] = test system: HCC1954 cells (PI3Kα mutant H1047R); assay: Cell viability / antiproliferative assay in HCC1954 cells (Example 903); conditions: Homo sapiens, HCC1954, 96 h, read-out: HCC1954 antiproliferative EC50
Experimental: (§1) Cells were seeded (1,500 per well) in 384-well plates for 16 h. On day 2, nine serial 1:3 compound dilutions were made in DMSO in a 96-well plate. The compounds were then further diluted into growth media using a Rapidplate robot (Zymark Corp.). […] After 4 d, relative numbers of viable cells were measured by luminescence using Cell Titer-Glo (Promega) according to the manufacturer's instructions and read on a Wallac Multilabel Reader (Perkin-Elmer). EC50 values were calculated using Prism 6.0 software (GraphPad).

[4] = test system: HCC1954 (PI3Kα mutant H1047R), p-PRAS40; assay: p-PRAS40 MSD assay in HCC1954 cells (Example 907); conditions: Homo sapiens, HCC1954, 24 h, read-out: P-PRAS40 HCC1954 MSD EC50
Experimental: (§2) The following day, cells are treated with compounds and incubated for 24 hours. […] The HCC1954 cell line expresses mutant PI3Kα (E545K) vs WT in HDQP1.
(§3) The MSD platform provides a method of measuring the phosphorylated levels of pPRAS40 in a single sample. […] Following cell lysis, PRAS40 in samples is allowed to bind to the capture antibodies.
(§4) Procedure: • Compounds prepared at concentration of 2 mM in DMSO.
(§5) Day 1: Cell Plating • 1. Seed 12.500 cells in 45 ul medium for each cell line. Allow cells to settle/attach to plate for 15-20 min at room temperature. • 2. Incubate cells overnight in a 37° C. humidity and CO2 controlled incubator.
(§6) Day 2: Compound Plate Preparation and Compound Treatment • 1. For the 10× intermediate dilution plate: add 95 ul serum-free media into a standard profile greiner 384 well polypropylene plate. • 2. Use biomek Fx protocol for intermediate compound dilution in media and addition to cells: “SLS Intermed Dil Add 5 ul to Cells Jul. […] The method then transfers 5 ul from the intermediate dilution plate to the appropriate cell plate. • 3. Incubate the treated cells at 37 degrees for 24 hours in a 5% CO2 humidified incubator.
(§7) Block the MSD assay plate with 50 ul 3% Blocker A/1×MSD Wash Buffer 1-2 hr at room temp. […] Blocking buffer A contains 1×MSD wash buffer. 20 mL 1× Tris Wash buffer and 600 mg Blocker A.
(§8) Aspirate Media and Lyse the Cells • 1. Lyse the cells in 50 μl lysis buffer. Lyse at room temperature for 10-20 minutes on plate shaker. • 2. While cells are lysing, wash blocked plates 1×MSD wash buffer. • 3. Transfer 42 ul lysates (21+21 μL) to a blocked MSD pPRAS40 assay plate. • 4. Seal MSD plates and incubate at 4° C. with shaking overnight.
(§9) Day 4: MSD Assay/Detection • 8. Make a solution of 1% Blocker A in 1×MSD wash buffer. (20 mL 1× Tris Wash buffer and 200 mg Blocker A (1% w/v). This solution can be stored at 4° C. for up to one month. • 9. Wash the MSD plates with 1×MSD wash buffer. • 10. Add 10 μl of the diluted SULFO-TAG detection antibody to the plates. Incubate for 1 hr with shaking at room temp.
(§10) Wash the plates 4× with 1×MSD wash buffer. • 12. Add 35 μl 1× Read buffer with reverse pipetting to avoid bubbles. • 13. Read the plate immediately on the MSD SECTOR instrument.

[5] = Unbound fraction in mouse plasma (Fu); format: in vitro ADME; conditions: read-out: Fu mouse (unbound fraction in species plasma)
[6] = test system: CD69 expression in CD19+ CD27− B cells; assay: B-cell a-IgM CD69 expression, human whole blood assay (Example 906); format: cell-based
Experimental: The expression of CD69 in B-cells resultant from a-IgM treatment is believed to be driven by signaling through PI3Kδ (delta).
Human whole blood was dispensed into 96-deep well plates at 100 μl per well. Compounds were diluted in DMSO to generate the desired stock concentrations and then further diluted in PBS to the desired working concentration and added in a volume of 5.5 μL per well. Samples were then incubated for 1 hour at 37° C. under 5% CO2 before the addition of 5 μg (10 μl per well) of Goat anti IgM F(ab′)2 (Southern Biotech, AL), and incubated for 18 hours at 37° C. under 5% CO2. All treatments were tested in duplicate.
In addition, human whole blood from each donor was stained with isotype-matched fluorescent control antibodies. After the addition of the appropriate antibody cocktail the whole blood samples were stained for 30 minutes in the dark and then lysed using BD Pharm Lysis (BD Bioscience, NJ). The resulting samples were then washed with FACS Buffer (Phosphate Buffered Saline (Ca:Mg++ free), 1 mM EDTA, 25 mM HEPES pH 7.0, 1% Fetal Bovine Serum (Heat-Inactivated) and fixed in FACS Buffer supplemented with 0.1% Formaldehyde (Polysciences Inc, PA) and 0.1% Pluronic F-68 (Sigma, MO). Data were acquired using a BD LSR-II (BD Biosciences) with BD FACSDiva software.
Cells were assessed by flow cytometry for levels of CD19, CD27 and CD69 using BD FACSDiva Software and the CD69 MFI-Mean of the CD19^+ CD27^− lymphocyte population was determined.

[7] = target: PI3Kα (Homo sapiens (Human), UniProt P42336); assay: Biochemical inhibition of PI3K alpha (ADP-Glo lipid kinase assay, Example 901); conditions: geometric mean of minimum three experiments unless footnoted
Experimental: Reactions are carried out using the following conditions for each PI3K isoform as in Table 5.
All reactions are carried out at room temperature. […] The reaction is started by the addition of 2 μl ATP/MgCl2. The kinase reaction buffer contains 50 mM HEPES, 50 mM NaCl 3 mM MgCl2, 0.01% BSA, 1% DMSO, and enzyme and substrate concentrations as indicated in the above table. The reaction is stopped by the addition of 10 μL ADP-Glo reagent. Plates are read in a Perkin Elmer Envision system using luminescence mode. 10 point dose response curves are generated for each test compound. Ki values for each compound are determined using the Morrison Equation.

[8] = test system: HDQ-P1 (PI3Kα wild-type), p-PRAS40; assay: p-PRAS40 MSD assay in HDQ-P1 cells (Example 907); conditions: Homo sapiens, HDQ-P1, 24 h, read-out: P-PRAS40 HDQ-P1 MSD EC50
Experimental: as §2, §3, §4, §5, §6, §7, §8, §9, §10

[9] = test system: SW48 (H1047R) PI3Kα mutant cells, P-PRAS40; assay: Inhibition of P-PRAS40 in SW48 isogenic cells, kinase domain mutant H1047R (Example 902); conditions: Homo sapiens, SW48, 24 h, read-out: P-PRAS40 SW48 (H1047R) EC50
[10] = Multiple day oral dosing in dogs (exposure, clinical and anatomic pathology); format: in vivo, Beagle dogs; conditions: for concentration at 14 day / Cmax / AUC(0-t): Beagle, plasma; for concentration at 14 day / Cmax / AUC(0-t) / Cmax D14, free / Exposure AUC0-24 hr, D14, free / Exposure multiples (free, AUC) / Exposure multiples (total, AUC) / Exposure multiples to CD69 IC50 (total, Cmin): dog; for concentration at 14 day: oral, read-out: Cmin D14, total; for Cmax / AUC(0-t): po; for Cmax: read-out: Cmax D14, total; for AUC(0-t): read-out: Exposure AUC0-24 hr, D14, total; for Exposure multiples (free, AUC) / Exposure multiples (total, AUC): vs TGI60 from 21-day HCC1954 TGI study; for Exposure multiples to CD69 IC50 (total, Cmin): whole-blood CD69 IC50 = 142 nM
Source text: The extent and severity of findings is consistent with increased inhibition of PI3Kδ (delta) at exposure multiples over CD69 IC50 for the comparator compounds.

[11] = test system: SW48 (parental) PI3Kα wild-type cells, P-PRAS40; assay: Inhibition of P-PRAS40 in SW48 isogenic cells, PI3Kα wild-type parental (Example 902); conditions: Homo sapiens, SW48, 24 h, read-out: P-PRAS40 SW48 (parental) EC50
[12] = Unbound fraction in dog plasma (Fu); format: in vitro ADME; conditions: read-out: Fu dog (unbound fraction in species plasma)
[13] = test system: MCF7 cells (PI3Kα mutant E545K); assay: Cell viability / antiproliferative assay in MCF7 cells (Example 903); format: cell-based; conditions: Homo sapiens, MCF7, 96 h, read-out: MCF7 antiproliferative EC50
Experimental: as §1

PI3Kα, sequence (P42336 whole entry, canonical isoform): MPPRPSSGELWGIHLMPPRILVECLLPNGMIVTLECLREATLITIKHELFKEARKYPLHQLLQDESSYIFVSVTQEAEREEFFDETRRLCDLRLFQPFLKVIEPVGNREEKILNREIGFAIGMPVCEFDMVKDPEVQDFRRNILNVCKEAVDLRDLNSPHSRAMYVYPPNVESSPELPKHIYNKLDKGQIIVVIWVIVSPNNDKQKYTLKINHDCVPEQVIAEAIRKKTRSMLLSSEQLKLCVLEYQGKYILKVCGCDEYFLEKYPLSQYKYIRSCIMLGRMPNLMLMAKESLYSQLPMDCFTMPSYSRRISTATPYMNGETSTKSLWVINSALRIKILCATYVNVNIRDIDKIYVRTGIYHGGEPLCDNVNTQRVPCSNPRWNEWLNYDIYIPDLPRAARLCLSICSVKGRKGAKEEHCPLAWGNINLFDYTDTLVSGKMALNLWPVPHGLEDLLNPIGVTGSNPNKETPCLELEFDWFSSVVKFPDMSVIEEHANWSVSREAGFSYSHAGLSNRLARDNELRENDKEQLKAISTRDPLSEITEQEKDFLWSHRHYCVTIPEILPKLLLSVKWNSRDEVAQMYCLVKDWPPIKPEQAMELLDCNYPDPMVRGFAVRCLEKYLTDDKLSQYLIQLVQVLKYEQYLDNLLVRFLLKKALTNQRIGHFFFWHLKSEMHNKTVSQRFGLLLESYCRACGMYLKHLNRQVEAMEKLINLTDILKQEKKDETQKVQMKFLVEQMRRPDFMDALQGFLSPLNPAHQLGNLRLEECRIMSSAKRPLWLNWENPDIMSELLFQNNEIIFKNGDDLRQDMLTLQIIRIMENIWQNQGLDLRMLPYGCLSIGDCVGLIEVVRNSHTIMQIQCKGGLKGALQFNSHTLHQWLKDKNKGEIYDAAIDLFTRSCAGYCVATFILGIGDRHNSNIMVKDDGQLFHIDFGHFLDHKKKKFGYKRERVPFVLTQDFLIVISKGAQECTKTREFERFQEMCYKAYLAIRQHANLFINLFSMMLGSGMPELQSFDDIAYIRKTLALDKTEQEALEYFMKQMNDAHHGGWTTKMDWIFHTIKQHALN
PI3Kα, sequence (P27986 whole entry partner, canonical isoform): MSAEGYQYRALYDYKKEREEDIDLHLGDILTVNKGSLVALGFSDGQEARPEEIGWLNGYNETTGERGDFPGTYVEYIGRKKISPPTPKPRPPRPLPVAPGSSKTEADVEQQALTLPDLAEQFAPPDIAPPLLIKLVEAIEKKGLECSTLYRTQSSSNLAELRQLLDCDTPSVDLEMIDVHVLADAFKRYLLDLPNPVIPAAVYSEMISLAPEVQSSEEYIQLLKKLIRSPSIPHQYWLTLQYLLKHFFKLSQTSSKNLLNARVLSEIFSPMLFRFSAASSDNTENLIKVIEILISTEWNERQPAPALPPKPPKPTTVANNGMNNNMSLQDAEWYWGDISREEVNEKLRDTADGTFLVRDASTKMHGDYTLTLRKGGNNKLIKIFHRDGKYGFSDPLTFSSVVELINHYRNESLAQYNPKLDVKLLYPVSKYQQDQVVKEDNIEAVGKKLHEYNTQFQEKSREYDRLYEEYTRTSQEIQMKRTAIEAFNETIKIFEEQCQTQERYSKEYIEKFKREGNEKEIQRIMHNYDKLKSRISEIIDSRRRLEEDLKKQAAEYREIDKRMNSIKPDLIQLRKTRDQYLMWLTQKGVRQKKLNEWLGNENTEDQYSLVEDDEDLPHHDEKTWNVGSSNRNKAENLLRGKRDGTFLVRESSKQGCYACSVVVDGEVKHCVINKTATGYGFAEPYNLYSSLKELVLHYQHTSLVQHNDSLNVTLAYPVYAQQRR
p110α, sequence (P42336 whole entry H1047R, the tested form may be a part): as the sequence (P42336 whole entry, canonical isoform) above, with H1047R counted along it
p110α, sequence (P27986 whole entry partner, the tested form may be a part): as the sequence (P27986 whole entry partner, canonical isoform) above

## NC(=O)[C@@H](Nc1ccc2c(c1)OCCn1cc(N3C(=O)OC[C@H]3C(F)F)nc1-2)C1CC1 [Compound 103, (S)-2-Cyclopropyl-2-((2-((S)-4-(difluoromethyl)-2-oxooxazolidin-3-yl)-5,6-dihydrobenzo[f]imidazo[1,2-d][1,4]oxazepin-9-yl)amino)acetamide]
[1]
  p110α levels (Western blot): promote reduction of p110α levels selectively in PI3K mutant
[2]
  EC50: 4.1 nM
[3]
  EC50: 70 nM
[4]
  EC50: 28 nM
[5]
  fraction unbound: 0.03
[6]; Homo sapiens, whole-blood, uncorrected, read-out: a-IgM stimulated CD69 expression (whole-blood) IC50
  IC50: 142 nM
[6]; human whole-blood IC50 multiplied by measured human fu, read-out: B-cell a-IgM CD69 expression IC50, plasma-protein-binding corrected
  IC50: 76 nM
[7]
  Ki: 0.06 nM
[8]
  EC50: 155 nM
[9]
  EC50: 3.8 nM
[10]; 0.1 mg/kg/day
  concentration at 14 day: 4.8 nM
  Cmax: 40 nM
  AUC(0-t): 0.27 µM·h
[10]; 0.3 mg/kg/day
  concentration at 14 day: 11 nM
  Cmax: 130 nM
  AUC(0-t): 0.9 µM·h
[10]; 1 mg/kg/day
  concentration at 14 day: 34 nM
  Cmax: 310 nM
  AUC(0-t): 2.54 µM·h
[10]; Compound 103 0.1 mg/kg/day QD
  Cmax D14, free: 20 nM
  Exposure AUC0-24 hr, D14, free: 0.14 µM·h
  Exposure multiples (free, AUC): 4.7 ×
  Exposure multiples (total, AUC): 0.2 ×
  Exposure multiples to CD69 IC50 (total, Cmin): 0.03×
[10]; Compound 103 0.3 mg/kg/day QD
  Cmax D14, free: 66 nM
  Exposure AUC0-24 hr, D14, free: 0.46 µM·h
  Exposure multiples (free, AUC): 15 ×
  Exposure multiples (total, AUC): 0.8 ×
  Exposure multiples to CD69 IC50 (total, Cmin): 0.08×
[10]; Compound 103 1 mg/kg/day QD
  Cmax D14, free: 160 nM
  Exposure AUC0-24 hr, D14, free: 1.29 µM·h
  Exposure multiples (free, AUC): 43 ×
  Exposure multiples (total, AUC): 2.2 ×
  Exposure multiples to CD69 IC50 (total, Cmin): 0.2×
[10]; multiple-day dosing in Beagle dogs (7-14 days), high exposure multiples
  Lymphoid depletion (summary): only minor amounts of lymphoid depletion at high exposure multiples
[10]; multiple-day dosing in Beagle dogs (7-14 days), 101 and 103 at >5-fold free exposure multiples over TGI60
  Pro-inflammatory signature (clinical pathology or anatomic pathology evaluation): do not promote a pro-inflammatory signature
[11]
  EC50: 10.1 nM
[12]
  fraction unbound: 0.507
[13]
  EC50: 30 nM

Source: patent US10112932B2, “Benzoxazepin oxazolidinone compounds and methods of use” (Genentech, Inc., priority 2015, dated 2018)
